Experimental findings from patent publication US9211305B2, “Pharmaceutical compositions with glycosaminoglycans and use thereof in the treatment of chronic ulcers” (LABORATORIOS FARMACEUTICOS ROVI S.A., priority 2008, dated 2015) are described below.

“And” between values parts separate entries of the source, which are not always exact repeats. Equal entries are not always repeated. Marks after values point to notes of the source that are not given here.

In one experiment the test system is Non-Diabetized Rats. Briefly: Wound healing by oral route in non-diabetized rats. Type of experiment: in vivo, Wistar rat. The settings on record: for histopathological Grade / histopathological Score: sacrifice day 15, fondaparinux 10 mg/kg, bemiparin 100 mg/kg. The protocol: (§1) Both treatments were administered by oral route at an administration volume of 10 mL/kg. In the case of fondaparinux, a dose of 10 mg/kg was administered and in the case of bemiparin, 100 mg/kg were administered.
(§2) The control group only received the carrier used to prepare the assay product. The carrier for the preparation of the assay product is a 1.5% (w/v) bicarbonate solution in water for injections. It was verified that the pH of the formulations prepared was above 8.00.
(§3) The animals were anesthetized (ketamine+xylazine, 90+10 mg/kg, i.m.). Their back was shaved and cleaned with disinfectant (povidone-iodine) and the area where the wound would be made was marked by means of a template to homogenize its position in all the animals.
(§4) The wound was made by means of a circular incision with a diameter of approximately 1.5 cm, the skin of the mid-dorsal area being removed. 1 mL/animal of physiological serum was administered by i.p. route after the intervention. […]. Analgesia (paracetamol, 1 mg/mL) was provided in drinking water for the 7 days after the intervention.
(§5) On the day after making the wound and for a total of 14 days, the assigned treatments were administered to the animals. The follow-up of the animals was performed, the evolution of the wounds being macroscopically assessed twice a week, by means of digital photography of the wound. The body weight of the animals was also recorded twice a week.
(§6) On the day after the last administration, the animals were sacrificed with anesthesia overdose (pentobarbital sodium). The area where the wound was made was extracted. The front half was frozen in liquid nitrogen and stored in a freezer (−80±5° C.) and the rear half was stored in formol for its subsequent histological processing.
(§7) The wound area was calculated as the percentage of reduction thereof to evaluate the degree of curing thereof, by means of the standardized formula: […]
On the following day and for a total of 14 days, 10 mg/kg were administered to the animals by oral route.
(§8) The follow-up of the animals was performed, the evolution of the wounds being macroscopically assessed twice a week, by means of digital photography of the wound. The body weight of the animals was also recorded twice a week.
(§9) The animals were sacrificed on day 15 of the study and the area of the skin where the wound was caused was stored in formol to perform a histopathological evaluation (hematoxylin-eosin staining).
Each section was given a histological score was given in the grade I to grade V range, where I means uncured wound and V means completely epithelialized wound. The score is based on the degree of cell invasion, the formation of granulation tissue, vascularization and epithelialization.

Experiment [1] has as its system C57BL/KsJ-db/db diabetic mouse. Briefly: Example 4: wound healing in genetically diabetic mouse, topical route. Type of experiment: in vivo. The following applies: topical 1000 IU/kg; for histopathological Grade / histopathological Score: 14 days, sacrifice day 15. The protocol:
In this case, topical formulations were prepared for the direct administration on the ulcers, the carriers of which formulations are formed by Carbopol, Phenonip®, Span 80, Glycerol and water.
The ulceration and measurement of the area were performed as detailed in the subcutaneous administration assays. On the day after the incision and for a total of 14 days, the assigned treatments, 0.15 ml/animal by topical route in the back of the animal, above the wound, were administered to the animals.
The follow-up of the animals was performed up to a period of 14 days (average time necessary for the healing of the wounds in this animal model). The assessment was performed by means of digital photography of the wound and subsequent image analysis.
The animals were sacrificed on the day after the last administration (day 15) and the area where the wound was made was extracted. The rear portion of the area containing the wound was stored in formol for its histological processing (hematoxylin-eosin staining).
The results were based on the score given by the method of Greenhalgh et al. (1990). Each block was given a histological score from 1 to 15, where 1 means uncured wound and 15 means completely epithelialized wound. The score is based on the degree of cell invasion, the formation of granulation tissue, vascularization and epithelialization: […]

A further experiment relates to diabetic rat wound model. Briefly: Wound healing by oral route in diabetic rat. Format: in vivo, Wistar rat. The following applies: 14 days; for histopathological Grade / histopathological Score: oral, sacrifice day 15, fondaparinux 10 mg/kg, bemiparin 100 mg/kg. The protocol:
as §1, §2
At the beginning of the assay, diabetes mellitus was induced in all the animals. To that end, they received a single intraperitoneal injection of streptozotocin (60 mg/kg, 10 mL/kg). After 72 hours, the establishment of the diabetes was verified by analyzing the blood glucose levels. To that end, animals were anesthetized with isoflurane and 0.8 mL of blood were extracted from the retroorbicular plexus. The animals had to have values of glucose greater than 15 mmol/L. A week after the induction of the diabetes, the wound was made.
as §3, §4, §5, §6, §7
On the following day and for a total of 14 days, 10 mL/kg were administered to the animals by oral route.
as §8, §9
Each section was given a histological score in the grade I to grade V range, where I means uncured wound and V means completely epithelialized wound. The score is based on the degree of cell invasion, the formation of granulation tissue, […]

A further experiment concerns diabetic wistar rat. Briefly: Example 2: ulcer area reduction in streptozocin-diabetized rats, subcutaneous route. The settings on record: for percentage of area reduction of day 9 with respect to day 1: single ulcers. Type of experiment: in vivo. The protocol: To perform the present embodiment, doses of 45 mg/kg of streptozocin (STZ) were administered by intramuscular route to make a batch of 8 rats diabetic (Andrades Ja et al. Engineering, expression, and renaturation of a collagen-targeted human bFGF fusion protein. Growth Factors. 2001; 18(4):261-75).
Male wistar rats with a average weight of 250 g per rat were used, to which a dose of 11.25 mg STZ per rat was administered by means of the intramuscular administration of 100 μL in the left paw of each rat.
Sweetened water (350 mg/dL) was administered to all the rats for three days and glucose measurements were performed with a glucometer every day to verify that the rats were indeed diabetized. For this reason, before the administration and at time 4 days after the administration of streptozocin, a drop of blood was extracted from the rat tail vein for the subsequent quantification of glycemia and see whether they were diabetic before starting the ulceration assay.
Once the rats were diabetized, 2 ulcers with a diameter of 1 cm each were made on them using a scalpel. An anesthesia/analgesia protocol with ketamine/xylazine was followed according to the recommendations of the book: “Handbook of laboratory animal management and welfare”:
The ulcers were treated with water and cleaned for 9 days after the ulceration.
The administrations of bemiparin and of fondaparinux were performed by means of a bemiparin solution by subcutaneous route (100 μL) for the treatment of the ulcers.
The diameter of the ulcer was quantified by means of tracing the ulcer onto a transparency to see the progress of the healing.

Setting [2] is: Fondaparinux rats, Batch 3, 0.22 mg per rat, subcutaneous.
Setting [3] is: 108 IU rats, Batch 2, subcutaneous.
[4] abbreviates: 217 IU rats, Batch 1, subcutaneous.

`CO[C@H]1O[C@H](COS(=O)(=O)O)[C@@H](O[C@@H]2O[C@@H](C(=O)O)[C@@H](O[C@H]3O[C@H](COS(=O)(=O)O)[C@@H](O[C@@H]4O[C@H](C(=O)O)[C@@H](O[C@H]5O[C@H](COS(=O)(=O)O)[C@@H](O)[C@H](O)[C@H]5NS(=O)(=O)O)[C@H](O)[C@H]4O)[C@H](OS(=O)(=O)O)[C@H]3NS(=O)(=O)O)[C@H](O)[C@H]2OS(=O)(=O)O)[C@H](O)[C@H]1NS(=O)(=O)O` [Fondaparinux]: the “histopathological Grade” value in the experiment on Non-Diabetized Rats (oral, 14 days) was “III (7-9 Moderately thick granulation tissue. It can vary from being dominated by inflammatory cells to greater presence of fibroblasts and collagen deposition, extensive neovascularization, minimum to moderate epithelial migration.)”; in experiment [1] it was “III (7-9 Moderately thick granulation tissue. It can vary from being dominated by inflammatory cells to greater presence of fibroblasts and collagen deposition, extensive neovascularization, minimum to moderate epithelial migration.)”; in the experiment on diabetic rat wound model it was “III (7-9 Moderately thick granulation tissue. It can vary from being dominated by inflammatory cells to greater presence of fibroblasts and collagen deposition, extensive neovascularization, minimum to moderate epithelial migration.)”. Also, the “histopathological Score” value is on record as 9.5 with Non-Diabetized Rats (oral, 14 days); 8.6 in experiment [1]; 9.5 in the experiment with diabetic rat wound model. In the experiment on diabetic wistar rat (setting [2]), the “percentage of area reduction of day 9 with respect to day 1, Average” value is recorded as 20.70%. The “percentage of area reduction of day 9 with respect to day 1” value in the experiment on diabetic wistar rat (setting [2]) is 17.00%* and 20.69% and 21.32% and 23.81%.

On to Bemiparin, for which, in the experiment on Non-Diabetized Rats (oral 100 mg/kg, 14 days), the “reduction of the ulceration area” value is “more or less to the same extent as the control animals”. Moreover, the “histopathological Grade” value in the experiment with Non-Diabetized Rats (oral, 14 days) was “III (7-9 Moderately thick granulation tissue. It can vary from being dominated by inflammatory cells to greater presence of fibroblasts and collagen deposition, extensive neovascularization, minimum to moderate epithelial migration.)”; in experiment [1], “III (7-9 Moderately thick granulation tissue. It can vary from being dominated by inflammatory cells to greater presence of fibroblasts and collagen deposition, extensive neovascularization, minimum to moderate epithelial migration.)”; with diabetic rat wound model, “IV (10-12 Thick and vascular granulation tissue dominated by fibroblasts and extensive collagen deposition, the epithelium covers the wound partially or completely.)”. The “histopathological Score” value in the experiment on Non-Diabetized Rats (oral, 14 days) worked out at 9.0; in experiment [1] it was 8.7; in the experiment on diabetic rat wound model it was 11.3. Besides, the scab formation result in the experiment with Non-Diabetized Rats (oral, compared with fondaparinux) was “much more pronounced scab process”. Further, the area reduction entry in experiment [1] (end of the treatment (14 days)) is on record as “greater than 60%”. In addition, in the experiment with diabetic rat wound model (oral 100 mg/kg), the “evolution of the wound area (FIG. 11)” value is recorded as “heal much better than those treated with fondaparinux”. Besides, the “percentage of area reduction of day 9 with respect to day 1, Average” value was determined as 24.39 ± 7.47% in the experiment with diabetic wistar rat (setting [3]) and 27.35 ± 7.25% in the experiment with diabetic wistar rat (setting [4]). The macroscopic healing process result in the experiment on diabetic wistar rat (day 9 with respect to day 0, bemiparin 217 IU) is reported as “macroscopically much better than in the case of fondaparinux”. Further, the “percentage of area reduction of day 9 with respect to day 1” value with diabetic wistar rat (setting [3]) is 16.96% and 13.26% and 19.14% and 19.71%; in the experiment with diabetic wistar rat (setting [4]), 29.31% and 31.85% and 28.40% and 24.89%.
